# According to PMC6147116 (Journal of Enzyme Inhibition and Medicinal Chemistry, 2018):
# Like-named read-outs stand apart in the source and are kept apart here.
# Columns and labels:
# [1] = target: T1, 17β-hydroxysteroid dehydrogenase type 1 (17β-HSD1) (Homo sapiens, UniProt P14061); assay: 17β-HSD1 inhibition, in vitro radiosubstrate incubation (E1 to E2), human placental cytosol; Dixon kinetic analysis; assay type: biochemical; details: for 17β-HSD1 Rel.conv. ± SD: 10 µM test compound, non-inhibited control 100%, mean ± SD, n = 3; for IC50: E1 substrate 1.0 µM, NADPH excess
# T1 sequence (P14061 1-328): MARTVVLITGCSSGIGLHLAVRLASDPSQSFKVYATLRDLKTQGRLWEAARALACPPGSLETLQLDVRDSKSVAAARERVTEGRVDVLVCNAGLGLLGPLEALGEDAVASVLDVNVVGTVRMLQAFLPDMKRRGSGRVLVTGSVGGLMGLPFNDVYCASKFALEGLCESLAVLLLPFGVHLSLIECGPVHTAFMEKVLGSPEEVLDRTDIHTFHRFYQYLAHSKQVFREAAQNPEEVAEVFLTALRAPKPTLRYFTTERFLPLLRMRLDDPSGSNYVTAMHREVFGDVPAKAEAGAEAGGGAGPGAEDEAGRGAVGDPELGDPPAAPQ
# Experimental: (§1) Enzyme inhibition studies were performed by in vitro radiosubstrate incubations using human term placenta cytosol and microsomas as enzyme sources. […] Relative conversions compared to non-inhibited controls (100%) were measured in the presence of 10 µM concentration of the test compound. […] Mechanistic and kinetic investigations were performed and inhibitory constants (Ki) were determined for selected compounds.
# Inhibitors that bind to the steroid site of 17β-HSD1 can bind to both the free enzyme and the binary enzyme–cofactor complex by random kinetic mechanism.
# (§2) Enzymatic incubations were carried out in the HEPES buffer medium at a final volume of 200
# (§3) µl. The substrate was added to the incubate in 20 µl of a 25 v/v% propylene glycol in HEPES buffer solution, whereas test compounds were applied in 10 µl of dimethyl sulfoxide solution.
# (§4) Incubations were performed at 37 °C and terminated by cooling and the addition of organic solvents of the subsequent extraction procedure. Control samples with no inhibitor and blank samples were incubated simultaneously. […]
# The incubation time was 2.5 min. The product 17β-estradiol (E2, 5) was extracted with ethyl acetate and isolated by a TLC method (details are published in our earlier reference).
# (§5) In the general procedure, incubations were performed as described. Concentrations of the substrates were 1.0 µM, and the test compounds were applied at 10 µM final concentration in the incubate. Relative conversions compared to non-inhibited controls (100%) were determined. The assays were performed in triplicate, and the mean value and the standard deviation (SD) were calculated. […]
# (§6) these cases, conversions were measured at 10–15 different concentrations in the appropriate interval between 0.001–50 µM. IC50 results were calculated by using unweighted iterative least squares logistic curve fitting by means of the “absolute IC50 calculation“ function of the GraphPad Prism 4.0 software (GraphPad Software, Inc., San Diego, CA, USA).
# (§7) Kinetic analyses were performed via measurement of the enzymatic transformation using different fixed substrate concentrations and varied inhibitor concentrations. The Dixon’s linear transformation (1/velocity vs. inhibitor concentration) was applied for evaluation and the inhibition constant (Ki) was determined from abscissa of intersection of the lines of different substrate concentrations. Mechanism of binding was identified according to the Dixon’s graphs and the secondary plot of slopes of the Dixon’s lines vs. 1/substrate […]
# The inhibitor compounds were preincubated with the appropriate placenta fraction in a volume of 4.0 µl at 37 °C for various time periods (2.5-40 min). Following this procedure, samples were diluted with the incubation medium to 50-fold. Enzyme activity measurements
# human aromatase = target: T2, human aromatase (Homo sapiens, UniProt P11511); assay: Aromatase inhibition, in vitro radiosubstrate incubation (testosterone to E2 conversion), human placental microsomes; assay type: biochemical; details: for remaining activity at 10 µM: read-out: Arom Rel.conv. ± SD
# T2 construct: from tissue; host or cells: human term placenta, microsomal fraction
# T2 sequence (P11511 1-503): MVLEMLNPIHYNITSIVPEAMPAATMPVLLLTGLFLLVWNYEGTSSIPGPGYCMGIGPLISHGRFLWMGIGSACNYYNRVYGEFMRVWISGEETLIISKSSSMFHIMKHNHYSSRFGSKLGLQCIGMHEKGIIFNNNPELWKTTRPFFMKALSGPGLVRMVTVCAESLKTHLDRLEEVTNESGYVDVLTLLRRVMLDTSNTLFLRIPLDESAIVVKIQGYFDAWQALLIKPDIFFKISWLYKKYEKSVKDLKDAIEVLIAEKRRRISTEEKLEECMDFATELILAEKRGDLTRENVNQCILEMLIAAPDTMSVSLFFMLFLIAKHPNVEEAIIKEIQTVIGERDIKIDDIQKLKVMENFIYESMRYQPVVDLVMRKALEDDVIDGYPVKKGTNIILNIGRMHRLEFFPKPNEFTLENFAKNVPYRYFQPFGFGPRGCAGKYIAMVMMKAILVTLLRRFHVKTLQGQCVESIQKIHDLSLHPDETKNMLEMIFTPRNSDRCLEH
# Experimental: as §1, §2, §3
# as §4, with “simultaneously. The radioactivity of the products formed was measured by means of liquid scintillation counting (LSC) and taken as indicator of the” for “simultaneously.”
# In the aromatase assays the microsoma suspension was incubated with appropriate concentration of unlabelled testosterone (2) substrate spiked with [1,2,6,7-3H]testosterone tracer, and in the presence of 0.1 mM NADPH cofactor excess. (In this case, solution of the substrate was prepared with acetonitrile instead of propylene glycol.) Incubation time was 40 min. The incubation mixture was extracted with toluene, then the toluene phase was drained and washed with HEPES buffer. Aromatase products containing phenolic hydroxy group were extracted with 1.2 M sodium hydroxide solution from the toluene extract and the alkaline phase was measured in the LSC. […]
# was extracted with toluene. […]
# as §5, §6
# as §7, with “the” for “the Dixon’s graphs and the secondary plot of slopes of the Dixon’s lines vs. 1/substrate”
# steroid sulfatase (STS) = target: T3, steroid sulfatase (STS) (Homo sapiens, UniProt P08842); assay: STS inhibition, in vitro radiosubstrate incubation (release of E1 from E1S), human placental microsomes; Dixon kinetic analysis; assay type: biochemical; details: for remaining activity at 10 µM: read-out: STS Rel.conv. ± SD
# T3 construct: from tissue; host or cells: human term placenta, microsomal fraction
# T3 sequence (P08842 22-583): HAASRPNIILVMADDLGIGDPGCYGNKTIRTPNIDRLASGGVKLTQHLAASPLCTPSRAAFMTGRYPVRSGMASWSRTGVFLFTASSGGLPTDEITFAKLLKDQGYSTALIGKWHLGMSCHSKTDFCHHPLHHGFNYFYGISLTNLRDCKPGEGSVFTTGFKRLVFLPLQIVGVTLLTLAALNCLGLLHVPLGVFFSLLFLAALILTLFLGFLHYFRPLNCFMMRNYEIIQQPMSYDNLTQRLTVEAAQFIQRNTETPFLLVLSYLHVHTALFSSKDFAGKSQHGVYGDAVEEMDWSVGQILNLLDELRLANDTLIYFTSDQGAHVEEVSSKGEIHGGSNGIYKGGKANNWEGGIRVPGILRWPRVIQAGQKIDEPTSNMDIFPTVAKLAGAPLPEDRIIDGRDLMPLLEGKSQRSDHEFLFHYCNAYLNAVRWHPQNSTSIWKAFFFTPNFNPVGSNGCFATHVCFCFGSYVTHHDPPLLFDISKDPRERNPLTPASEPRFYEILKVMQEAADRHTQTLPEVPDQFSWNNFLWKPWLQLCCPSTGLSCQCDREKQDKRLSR
# Experimental: as §1
# Kinetic analyses of selected compounds 7a and 16c were performed by measurement of enzyme activities using different fixed substrate concentrations and varied inhibitor concentrations.
# as §2, §3, §4
# The incubation time was 2.5 min. […]
# as §5, §6, §7
# The inhibitor compounds were preincubated with the appropriate placenta fraction in a volume of 4.0 µl at 37 °C for various time periods (2.5-40 min). Following this procedure, […]
# [2] = target: T1, 17β-hydroxysteroid dehydrogenase type 1 (17β-HSD1); details: earlier paper of the authors; read-out: 17β-HSD1 IC50 ± SD; cited from earlier work
# aromatase enzyme = target: aromatase enzyme; set-up: method as in PMID 16039845; details: cited from earlier work
# [3] = 10 µM test compound, non-inhibited control 100%, mean ± SD, n = 3
# [4] = E1S substrate 1.0 µM, read-out: STS IC50 ± SD
Structure (SMILES),remaining activity at 10 µM (human aromatase; [3]) [%],remaining activity at 10 µM (steroid sulfatase (STS); [3]) [%],IC50 ([1]; read-out: 17β-HSD1 IC50 ± SD) [nM],IC50 (steroid sulfatase (STS); [4]) [nM],further results
C[C@]12CC[C@@H]3c4cc(I)c(O)c(I)c4CC[C@H]3[C@@H]1CCC2=O [8a],86 ± 6,80 ± 13,,,17β-HSD1 Rel.conv. ± SD [1]: 55 ± 7%
C[C@]12CCC[C@H]1[C@@H]1CCc3c(cc(I)c(O)c3I)[C@H]1CC2 [16a],94 ± 2,59 ± 13,,,17β-HSD1 Rel.conv. ± SD [1]: 61 ± 7%
"C[C@]12CC[C@@H]3c4ccc(O)c(Br)c4CC[C@H]3[C@@H]1CCC2=O [7b, 4-bromoestrone]",91 ± 6,,300 ± 200,890 ± 300,
C[C@@]12CC[C@@H]3c4cc(Cl)c(O)c(Cl)c4CC[C@H]3[C@@H]1CCC2=O [12c],,,,,IC50 ([1]; 17β-HSD1 IC50 ± SD): 2200 ± 600 nM; remaining activity at 10 µM (human aromatase): 101 ± 4%; remaining activity at 10 µM (steroid sulfatase (STS)): 70 ± 3%
C[C@@]12CC[C@@H]3c4ccc(O)c(Br)c4CC[C@H]3[C@@H]1CCC2=O [11b],78 ± 1,,,8500 ± 3100,IC50 [2]: 2100 ± 1200 nM
C[C@]12CCC[C@H]1[C@@H]1CCc3cc(O)c(Cl)cc3[C@H]1CC2 [14c],88 ± 10,,2600 ± 1300,7000 ± 1900,
C[C@]12CCC[C@H]1[C@@H]1CCc3c(cc(Br)c(O)c3Br)[C@H]1CC2 [16b],,,,,IC50 ([1]; 17β-HSD1 IC50 ± SD): 4100 ± 2500 nM; remaining activity at 10 µM (human aromatase): 82 ± 6%; IC50 (steroid sulfatase (STS)): 7500 ± 2000 nM
C[C@]12CCC[C@H]1[C@@H]1CCc3cc(O)c(Br)cc3[C@H]1CC2 [14b],97 ± 5,,1300 ± 800,4100 ± 1300,
C[C@]12CC[C@@H]3c4cc(Br)c(O)c(Br)c4CC[C@H]3[C@@H]1CCC2=O [8b],81 ± 5,,960 ± 450,2100 ± 600,
C[C@@]12CC[C@@H]3c4cc(I)c(O)cc4CC[C@H]3[C@@H]1CCC2=O [10a],82 ± 10,83 ± 3,,,IC50 [2]: 590 ± 230 nM
C[C@@]12CC[C@@H]3c4ccc(O)c(Cl)c4CC[C@H]3[C@@H]1CCC2=O [11c],,,,,IC50 ([1]; 17β-HSD1 IC50 ± SD): 2600 ± 1000 nM; remaining activity at 10 µM (human aromatase): 98 ± 3%; remaining activity at 10 µM (steroid sulfatase (STS)): 80 ± 7%
C[C@]12CCC[C@H]1[C@@H]1CCc3c(ccc(O)c3Cl)[C@H]1CC2 [15c],89 ± 1,,4500 ± 2000,6300 ± 1800,
C[C@]12CCC[C@H]1[C@@H]1CCc3c(ccc(O)c3I)[C@H]1CC2 [15a],92 ± 7,,,2700 ± 1300,17β-HSD1 Rel.conv. ± SD [1]: 57 ± 9%
"C[C@]12CC[C@@H]3c4cc(I)c(O)cc4CC[C@H]3[C@@H]1CCC2=O [6a, 2-Iodoestrone]",66,64 ± 3,64 ± 34,,"IC50 (human aromatase; testosterone substrate 1.0 µM, read-out: Arom IC50 ± SD): > 10000 nM"
C[C@]12CCC[C@H]1[C@@H]1CCc3c(ccc(O)c3Br)[C@H]1CC2 [15b],90 ± 8,,11000 ± 4000,3700 ± 1200,17β-HSD1 Rel.conv. ± SD [1]: 49 ± 12%
C[C@]12CC[C@@H]3c4ccc(O)c(Cl)c4CC[C@H]3[C@@H]1CCC2=O [7c],,,,,IC50 ([1]; 17β-HSD1 IC50 ± SD): 600 ± 160 nM; remaining activity at 10 µM (human aromatase): 92 ± 3%; IC50 (steroid sulfatase (STS)): 1600 ± 300 nM
C[C@@]12CC[C@@H]3c4cc(Br)c(O)cc4CC[C@H]3[C@@H]1CCC2=O [10b],100 ± 5,81 ± 6,,,IC50 [2]: 1200 ± 300 nM
C[C@@]12CC[C@@H]3c4cc(Br)c(O)c(Br)c4CC[C@H]3[C@@H]1CCC2=O [12b],108 ± 11,71 ± 4,,,IC50 [2]: 2700 ± 100 nM
"C[C@]12CCC[C@H]1[C@@H]1CCc3cc(O)ccc3[C@H]1CC2 [compound 13, 17-deoxy-13α-estrone]",95 ± 12,76 ± 5,1100 ± 330,,"Ki ([1]; from Dixon plot, cofactor excess): 2000 nM"
"C[C@@]12CC[C@@H]3c4ccc(O)cc4CC[C@H]3[C@@H]1CCC2=O [compound 9, 13α-Estrone]",85 ± 13,96 ± 1,,,
"C[C@]12CC[C@@H]3c4ccc(O)cc4CC[C@H]3[C@@H]1CCC2=O [E1 (4), estrone, reference compound]",78,,,,Ki (aromatase enzyme): 2500 nM; IC50 (human aromatase): > 10000 nM; IC50 (steroid sulfatase (STS)): 24000 ± 10000 nM
C[C@]12CC[C@@H]3c4cc(Cl)c(O)c(Cl)c4CC[C@H]3[C@@H]1CCC2=O [8c],,,,,IC50 ([1]; 17β-HSD1 IC50 ± SD): 590 ± 160 nM; remaining activity at 10 µM (human aromatase): 82 ± 4%; IC50 (steroid sulfatase (STS)): 3000 ± 900 nM
C[C@]12CCC[C@H]1[C@@H]1CCc3cc(O)c(I)cc3[C@H]1CC2 [14a],89 ± 9,,2900 ± 1600,3900 ± 1600,
C[C@@]12CC[C@@H]3c4cc(Cl)c(O)cc4CC[C@H]3[C@@H]1CCC2=O [10c],106 ± 6,57 ± 1,330 ± 100,,
